Data as given in patent US5455241A, “Polycyclic compounds and processes for the preparation thereof” (Ciba-Geigy Corporation, priority 1993, dated 1995).
Read-outs that look alike come from different tables or passages of the source.

Assays:
Stability in solution = assay type: physicochemical
[1] = tested on: human bladder tumours T24; assay: Anti-tumour activity in vivo, s.c. transplanted human bladder tumours T24 in hairless mice; design: species or system human tumour in female Balb/c hairless mice; settings: 15 days
Description: Female Balb/c hairless mice with s.c. transplanted human bladder tumours T24 are used to determine the anti-tumour activity. With the animals under peroral forene narcosis, approximately 25 mg of a solid tumour are placed under the skin on "the animals' left flank on day 0 and the small incised wound is closed by means of suture clips. On day 6 after the transplantation, the mice are divided at random into groups of 6 animals and treatment commences. The treatment is carried out for 15 days with peroral or intraperitoneal administration once daily of a compound of formula I in dimethyl sulfoxide/Tween 80/sodium chloride solution in the various doses. The tumours are measured twice a week with a slide gauge and the volume of the tumours is calculated. In this test, the peroral or intraperitoneal administration of 3 mg/kg daily of a compound of formula I brings about a reduction in the average tumour volume to from 10 to 15% of the tumour volume in the untreated control animals.
Example 10: Anti-tumour activity of N-[0-(tetrahydropyran-4-yl)-D-lactoyl]-staurosporin in vivo:
The substance is formulated as follows: 12.5 mg of active ingredient are dissolved in 0.25 ml of dimethyl sulfoxide and mixed with 50 μof Tween 80.4.7 ml of a 0.9% sodium chloride solution are then added and the whole is mixed thoroughly.
Female Balb/c hairless mice with s.c. transplanted human bladder tumours T24 are used to determine the anti-tumour activity. With the animals under peroral forene narcosis, approximately 25 mg of a solid tumour are placed under the skin on the animals' left flank on day 0 and the small incised wound is closed by means of suture clips. On day 6 after the transplantation, the mice are divided at random into groups of 6 animals and treatment commences. The treatment is carried out for 15 days with the administration once daily of the various doses. The tumours are measured twice a week with a slide gauge and the volume of the tumours is calculated. The results are compiled in the following Table in which "dose" is the daily dose, "admin." is the mode of administration, "exper." is experiment and "T/C %" is the percentage quotient of the values in the treated mice and the untreated control mice.

[2] = Determination of the maximum tolerated dose (MTD); settings: mouse, in vivo, 3 female Balb/c mice per dose, within 7 days
Description: Example 11: Determination of the maximum tolerated dose (MTD) of N-[0-(tetrahydro-pyran-4-yl) -D-lactoyl]- staurosporin
3 female Balb/c mice per dose are treated i.p. or p.o. with N-[O]-(tetrahydropyran-4-yl)-D-lactoyl]-staurosporin in dimethyl sulfoxide […]/sodium chloride solution (see Example 10 for formulation). The dose is increased until animals succumb within 7 days.

Row | stability in solution (Stability in solution) | SMILES | average tumour volume [T/C %] ([1]; 0.19 mg/kg daily i.p., Exper. 2) | average tumour volume [T/C %] ([1]; 0.38 mg/kg daily i.p., Exper. 2) | average tumour volume [T/C %] ([1]; 0.75 mg/kg daily i.p., Exper. 2) | average tumour volume [T/C %] ([1]; 0.78 mg/kg daily p.o., Exper. 2) | average tumour volume [T/C %] ([1]; 1.50 mg/kg daily i.p., Exper. 1) | average tumour volume [T/C %] ([1]; 1.50 mg/kg daily i.p., Exper. 2) | average tumour volume [T/C %] ([1]; 1.56 mg/kg daily p.o., Exper. 2) | average tumour volume [T/C %] ([1]; 3.00 mg/kg daily i.p., Exper. 1) | average tumour volume [T/C %] ([1]; 3.00 mg/kg daily i.p., Exper. 2) | average tumour volume [T/C %] ([1]; 3.13 mg/kg daily p.o., Exper. 1) | average tumour volume [T/C %] ([1]; 3.13 mg/kg daily p.o., Exper. 2) | average tumour volume [T/C %] ([1]; 6.25 mg/kg daily p.o., Exper. 1) | average tumour volume [T/C %] ([1]; 6.25 mg/kg daily p.o., Exper. 2) | MTD at 168 h ([2]; ip, read-out: MTD (i.p.)) | MTD at 168 h ([2]; po, read-out: MTD (p.o.))
1 | unstable in solution | CO[C@@H]1[C@H](N(C)C(=O)COC2CCOCC2)C[C@H]2O[C@]1(C)n1c3ccccc3c3c4c(c5c6ccccc6n2c5c31)C(=O)NC4O (stereo partly shown) [Example 7, N-[2-(tetrahydropyran-4-yl-oxy)-acetyl]-7-hydroxy-staurospo] |  |  |  |  |  |  |  |  |  |  |  |  |  |  | 
2 |  | CO[C@@H]1[C@H](N(C)C(=O)[C@@H](C)OC2CCOCC2)C[C@H]2O[C@]1(C)n1c3ccccc3c3c4c(c5c6ccccc6n2c5c31)C(=O)NC4 [N-[O-(tetrahydropyran-4-yl)-D-lactoyl]-staurosporin] | 74% | 62% | 32% | 58% | 14% | 19% | 31% | 9% | 11% | 17% | 14% | 15% | 12% | 31.2 mg/kg | 62.5 mg/kg
